The results in this text go back to US20260355199A1, “COMPOSITIONS AND METHODS FOR TREATING OR PREVENTING NONALCOHOLIC STEATOHEPATITIS (NASH), ANOREXIA, DEPRESSION, ENDOMETRIOSIS, AND OTHER DISEASES OR DISORDERS” (priority 2022, published 2026).

Molecules are shown by their SMILES. “Also recorded” adds a separate entry of the source.

Assay [1] has as its system TET3 mRNA. In words: TET3 mRNA in THP-1 cells. The class given is cell-based, human. The settings on record: THP-1, 10 μM, 24 h. On the procedure: (§1) Bobcat339 Treatment of Cultured Cells Bobcat339 powder (Sigma-Aldrich, SML2611) was freshly dissolved in DMSO at a concentration of 5 mM and filtered through a 0.22 micron. Cells grown at a density of 80-90% were incubated in growth media with vehicle (DMSO) or Bobcat339 at a final concentration of 10 μM for 24 h, followed by RNA and protein extraction.
(§2) Total RNAs were extracted from cells using PureLink RNA Mini Kit. 0.5-1 μg total RNA was reverse transcribed to cDNA in a reaction volume of 20 μL using PrimeScript RT Reagent Kit. Real-time quantitative PCR was performed in a 15 μL reaction volume containing 0.5-1 μL of cDNA using SsoAdvanced Universal SYBR Green Supermix in a Bio-Rad iCycler. Gene expression levels were normalized against RPLP0.

A further assay deals with Lin28. In words: Lin28 expression in mouse peritoneal macrophages. The class given is cell-based. The settings on record: 10 μM, 48 h. On the procedure: For cultured mouse peritoneal macrophages, cells were primed with 30 ng/ml of TGF-β1 (R&D Systems, 7666-MB0-005) for 48 h (to increase TET3 expression) before Bobcat339 treatment. Bobcat339 (or DMSO) was added at a final concentration of 10 μM, followed by RNA and protein extraction at time points indicated in the figure legends.
as §2

Assay [2] has as its system Tet3 mRNA. In words: Tet3/Tet2 mRNA in RAW 264.7 cells. It counts as cell-based, mouse. The settings on record: RAW 264.7, 10 μM, 24 h. On the procedure:
For siRNA transfection in a 24-well plate scale of Raw 264.7 cells, 10 pmol of NT siRNA (AM4636, Ambion) or Tet3 siRNA (4390815/s101483, Ambion) was mixed with 100 μL of OPTI-MEM (Gibco, 31985-070) by gentle pipetting. In parallel, 3 μL of Lipofectamine RNAiMAX (Invitrogen, 13778-150) was mixed with 100 μL of OPTI-MEM by gentle pipetting. Following 5 min of incubation at RT, the two were combined and the resulting 200 μL of transfection solution was added to each well of cells. After 24 h of incubation at […] in a 5% humidified CO2 tissue culture incubator, 300 μL of growth media was added and incubation was continued until cell harvesting.
as §1, §2

The subject of assay [3] is TET3. Put plainly: TET3 protein in the ARC of mice (immunofluorescence). It counts as in vivo, mouse. On the procedure: To test whether Bobcat339 affects TET3 protein expression in AgRP neurons, Agrp-IRES-Cre::LSL-Cas9-GFP mice with GFP expression specifically in AgRP neurons were intraperitoneally injected with vehicle or Bobcat339 at 2.5 mg/kg, followed by isolation of ARCs under fed conditions (9:00-11:00) two days later. This dose was chosen based on the dose response studies. TET2 expression was widespread but was negligible in AgRP neurons.
Bobcat339 powder (Sigma-Aldrich, SML2611) was freshly dissolved in DMSO (vehicle) at a concentration of 50 mg/mL and filtered through a 0.22 micron. It was further diluted with 1×PBS to a final concentration of 0.5 mg/mL before injections. Mice were injected intraperitoneally with Bobcat339 at 1 mg/kg, 2.5 mg/kg, or 4 mg/kg.
The immunofluorescence for brain slices was conducted using previous methods (18). In brief, postfixed sections were cut into 40-μm-thick sections, followed by 5 times washing. Then the sections were incubated in blocking solution for 20 minutes and incubated with anti-TET3 (dilution 1:2000; Millipore Sigma, ABE290), anti-TET2 (dilution 1:500; Proteintech, 21207-1-AP), anti-AGRP (dilution 1:400; H-003-57, Phoenix Pharmaceuticals), anti-NPY (dilution 1:800, Cell Signaling Technology, 11976S), anti-VGAT (dilution 1:200; Abcam, Ab23592), or anti-FOS (dilution 1:1000; Biosensis, R-1751-050) overnight at 4 °C. Negative controls were performed by omitting the respective primary antibodies. The next day, sections were washed 5 times and incubated in 0.4% Triton x-100 PBS with the secondary antibody donkey anti-Rabbit IgG Fluor 594 (dilution 1:500; A-21207, Invitrogen) for 2 h at RT. The sections were coverslipped and scoped using a Keyence BZ-X700 fluorescence microscope. The fluorescence signals from GFP in AgRP neurons were detected without immunostaining.

The test system of assay [4] is TET3. In words: TET3 protein in SH-SY5Y human neuronal cells. The class given is cell-based. An excerpt:
Mouse GT1-7 hypothalamic neuronal cell line (Sigma-Aldrich, SCC116) and human SH-SY5Y neuroblastoma cell line (Sigma Aldrich, 94030304) were purchased and cultured according to the manufacturers' instructions. Purified Ad-TET3 adenovirus (Ad-FLAG.h-TET3, ADV-225322, Vector Biolabs) expressing human TET3 from a CMV promoter and Ad-GFP control adenovirus (1060, Vector Biolabs) were purchased.
For Bobcat339 treatment (FIG. 15A and FIG. 15B), GT1-7 cells grown in 24-well plates at 2×10^5 cells/well were incubated with vehicle or Bobcat339 at a final concentration of 10 μM for 6 h, followed by RNA and protein extractions. For TET3 protein stability assay (FIG. 15B), GT1-7 cells in 24-well plates at 2×10^5 cells/well were incubated with vehicle or Bobcat339 at a final concentration of 10 μM for 3 hours, followed by addition of cycloheximide (CHX, Cell Signaling, 2112) at a final concentration of […] in the presence of 10 μM of Bobcat339. Proteins were harvested at 0, 1, 2, and 3 hours after addition of CHX. For TET3 expression restoration experiments (FIG. 15C and FIG. 15D), GT1-7 or SH-SY5Y cells seeded in 24-well plates at 2×10^5 cells/well were infected with Ad-GFP or Ad-TET3 at 4000 gc/cell. Following 16 h of infection, vehicle or Bobcat339 were added at a final concentration of 10 μM. Protein and RNA were isolated 48 h later and analyzed. […]

`Nc1nc(=O)n(-c2cccc(-c3ccccc3)c2)cc1Cl` [Bobcat339, 4-Amino-1-[1,1′-biphenyl]-3-yl-5-chloro-2(1H)-pyrimidinone]: the “TET3 mRNA” value in the assay with TET3 mRNA [1] is “no significant difference in expression between the groups”. Also, the Lin28 expression result in the assay with Lin28 is “decreased”. For the same compound, the “Tet3 mRNA” value with Tet3 mRNA [2] is recorded as “without altering its mRNA abundance; also recorded: no significant difference in expression between the groups”. Further, the “TET3-positive AgRP neurons” value with TET3 [3] (2.5 mg/kg i.p., two days) was “a clear decrease in the number of TET3-positive AgRP neurons; also recorded: decreased TET3 protein in AgRP neurons; also recorded: inhibited TET3 expression in AgRP neurons”. The “TET3 protein in non-AgRP cells” value in the assay on TET3 [3] (decrease limited to the tip regions of the ARC even at 4 mg/kg) is on record as “decreased TET3 protein in non-AgRP cells”. For the same compound, in the assay with TET3 [3] (following exposure to Bobcat339), the “onset of TET3 decrease in AgRP neurons and neuron activation” value is recorded as “as early as three days”. Also, in the assay on TET3 [4], the “TET3 protein level / degradation” value is reported as “induced protein degradation of TET3”.
